Data reported in PubChem BioAssay (NCI).
Where “and” joins values, the source holds several entries; their conditions need not be identical. Equal values may be shown once.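 These data come from cells grown in 96-well plates and exposed to compound for 48 hours at five concentrations. Abbreviation: GI50, concentration required for 50% inhibition of growth. TGI is the concentration that stops growth completely.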

Tested on: MDA-MB-468 breast
Experiment: inhibition of tumour cell growth, NCI panel, 48 h

Compared with COc1cc2c(cc1NC(=O)C(Cl)Cl)-c1ccc(NC(=O)C(Cl)Cl)cc1C2, C=CC(=O)N[C@@H](/C=C/C(=O)OCC)Cc1ccc(-c2cc(Cl)cc(Cl)c2)cc1 is 18-fold higher in GI50: 280 nM for the first, 5170 nM for the second.

Going from C=CC[N+]1(CC)CCN=C1CCCCCCCCCCCCCCCCC (stereo not drawn) to COC1=C(OC)C(=O)C(CCCCCCCCCCO)=C(C)C1=O, the GI50 rises from 135 nM to 1660 nM (12-fold).

Going from O=S(=O)(NCCCNc1cc(-c2cn(-c3ccccc3)nc2-c2cccc(O)c2)ccn1)c1ccc(F)cc1 to O=C(NCCCNc1cc(-c2cn(-c3ccccc3)nc2-c2cccc(O)c2)ccn1)Nc1cccc(C(F)(F)F)c1, the GI50 falls from 2550 nM to 1610 nM (1.6-fold).

COc1ccc(C2CC(c3ccc(N(C)C)cc3)=NN2c2ccc(S(N)(=O)=O)cc2)cc1 (stereo not drawn) and COc1ccc(-c2c3c(N)c4c(nc3nc3c2c(C)nn3-c2ccccc2)CCCC4)cc1 are within 1.5-fold of each other in GI50: 3280 nM for the first, 2330 nM for the second.

Compared with CC(C)N(Cc1ccc(F)cc1)c1ccc(CO)c(Cl)c1, CCN(Cc1ccc(F)cc1)c1ccc(CO)c(C(F)(F)F)c1 is 9.7-fold higher in GI50: 17 nM for the first, 165 nM for the second.

Going from COc1ccc(/C=N\Nc2nc(SCC(C)C)nc(-c3ccc(OC)cc3)c2C#N)cc1 to COc1ccc(COc2cc3oc(=O)c4cc(C(C)O)ccc4c3cc2OC)cc1 (stereo not drawn), the GI50 rises from 4360 nM to 9200 nM (2.1-fold).

Going from COc1cc(-c2ncn(/C=C\c3nnco3)n2)cc(C(F)(F)F)c1 to COc1cc(C(=O)/C=C/c2c(C(F)(F)F)nc3ccccn23)cc(OC)c1OC, the GI50 rises from 518 nM to 2120 nM (4.1-fold).

Going from S=C(NCc1ccc2c(c1)OCO2)N1CCN(c2ncnc3c2oc2ccccc23)CC1 to O=C1/C(=C/c2ccccc2[N+](=O)[O-])COc2ccc(O)cc21, the GI50 rises from 456 nM to 1100 nM (2.4-fold).

COC(=O)c1cc([N+](=O)[O-])cc([N+](=O)[O-])c1Cl and O=C1c2ccccc2C(=O)c2c1cc1c(c2[N+](=O)[O-])OCO1 are within 1.5-fold of each other in GI50: 1220 nM for the first, 1640 nM for the second.

N#C/C(=C\c1cc2ccc(N3CCC3)cc2oc1=O)C(=O)N(CC(=O)O)CC(=O)O and C[C@@H](NC(=O)c1ccc(F)cc1)c1ccc2c(c1)CCN2C(=O)C1CCOCC1 cannot be ordered by GI50: over 100000 nM for the first, over 100000 nM for the second.

Going from Nc1nc2ccccc2c2c1S(=O)(=O)c1ccc(Cl)cc1C2=O to Nc1nc(-c2ccc(Cl)cc2)nc2c1sc(=S)n2-c1ccccc1, the GI50 rises from 735 nM to 4060 nM (5.5-fold).

COCCOCCOCCOCCOC(=O)OC[n+]1ccc(NC(=NCCCCCCOc2ccc(Cl)cc2)NC#N)cc1 and CCn1ccnc1C(=O)/C=C/c1ccc(CC(=O)Nc2ccc(F)cc2)cc1 are within 1.5-fold of each other in GI50: 1420 nM for the first, 1990 nM for the second.

Compared with CC(=O)N(O)c1ccc(/C=C/c2ccccc2)cc1, Cn1c(C(=O)c2cccc3ccccc23)nc2ccccc21 is 86-fold higher in GI50: 68.6 nM for the first, 5920 nM for the second.

Going from Clc1nc(Cl)c2ncn(CCOCCn3cnc4c(Cl)nc(Cl)nc43)c2n1 to Clc1ccc([I+]c2ccc(Cl)cc2Cl)c(Cl)c1, the GI50 rises from 179 nM to 1330 nM (7.4-fold).

Going from Fc1ccc2nc(-c3nc(-c4ccccc4)n4ccccc34)[nH]c2c1 to Cc1ccc(-n2c(-c3cc4c([nH]c5ccccc54)c(-c4cccc(O)c4)n3)n[nH]c2=S)cc1, the GI50 falls from 1490 nM to 280 nM (5.3-fold).

Going from O=S(=O)(NCCCNc1nccc(-c2c(-c3ccc(F)cc3)nc3sccn23)n1)c1ccc(F)cc1 to NCc1ccc(-c2nc(-c3ccc(Cl)c(O)c3)c(-c3ccncc3)[nH]2)cc1, the GI50 rises from 4550 nM to over 12200 nM.

Compared with C=C1C(=O)O[C@H]2[C@H]1CC/C(COC(=O)NCc1c[nH]c3ccc(F)cc13)=C\CC[C@@]1(C)O[C@@H]21, N#Cc1c(NC(=O)c2ccccc2F)sc2c1CCCC2 is 5.2-fold higher in GI50: 1090 nM for the first, 5650 nM for the second.

Compared with C[C@H]1CN(C2COC2)CCN1c1ccc(Nc2cc(-c3ccnc(N4CCn5c(cc6c5CC(C)(C)C6)C4=O)c3CO)cn(C)c2=O)nc1, COc1ccc2c(c1)C(=O)c1c-2c(=O)n(CCCN(C)C)c2cc(OC)c(OC)cc12 is 16-fold lower in GI50: 22900 nM for the first, 1430 nM for the second.

First: COc1ccc(S(=O)(=O)N2CCNCC2)cc1OC
Second: c1ccc(C2CCCCC2)c(OCCCCCN2CCNCC2)c1
The GI50 of the first is higher: over 100000 nM for the first, 1770 nM for the second.

CC1CCN(CCOc2ccc(CNc3ccc4nc(CCC5CCCCC5)[nH]c4c3)cc2)CC1 and CC1SC(c2ccc(Cl)cc2)N(CCc2cccs2)C1=O (stereo not drawn) are within 1.5-fold of each other in GI50: 1550 nM for the first, 1470 nM for the second.

Going from C=CCN(CC=C)C(=O)[C@H](CC)[C@@H]1CC[C@@H](C)[C@@H]([C@H](C)[C@@H](O)[C@@H](C)C(=O)[C@H](CC)C2O[C@]3(C=C[C@@H](O)[C@]4(CC[C@@](C)([C@H]5CC[C@](O)(CC)[C@H](C)O5)O4)O3)[C@H](C)C[C@@H]2C)O1 (stereo partly drawn) to N#Cc1cccc(Nc2ncc(-c3ccccc3)o2)c1, the GI50 rises from 1530 nM to 5290 nM (3.5-fold).

First: COc1cc2c(cc1NC(=O)C(Cl)Cl)-c1ccc(NC(=O)C(Cl)Cl)cc1C2
Second: C=CC(=O)N[C@@H](/C=C/C(=O)OCC)Cc1ccc(-c2cc(Cl)cc(Cl)c2)cc1
The TGI of the first is 52-fold lower: 931 nM for the first, 48100 nM for the second.

Going from COc1ccc(-c2[nH]c3ccccc3c2/C=C(\C#N)S(=O)(=O)c2ccccc2)cc1 to COc1ccc(C2CC(c3ccc(N(C)C)cc3)=NN2c2ccc(S(N)(=O)=O)cc2)cc1 (stereo not drawn), the TGI rises from 1930 nM to over 100000 nM.

Compared with C=CC[N+]1(CC)CCN=C1CCCCCCCCCCCCCCCCC (stereo not drawn), COC1=C(OC)C(=O)C(CCCCCCCCCCO)=C(C)C1=O is 7-fold higher in TGI: 538 nM for the first, 3760 nM for the second.

O=S(=O)(NCCCNc1cc(-c2cn(-c3ccccc3)nc2-c2cccc(O)c2)ccn1)c1ccc(F)cc1 and O=C(NCCCNc1cc(-c2cn(-c3ccccc3)nc2-c2cccc(O)c2)ccn1)Nc1cccc(C(F)(F)F)c1 are within 1.5-fold of each other in TGI: 6730 nM for the first, 6150 nM for the second.

Compared with CC(C)N(Cc1ccc(F)cc1)c1ccc(CO)c(Cl)c1, CCN(Cc1ccc(F)cc1)c1ccc(CO)c(C(F)(F)F)c1 is 11-fold higher in TGI: 46.3 nM for the first, 499 nM for the second.

Going from COc1ccc(/C=N\Nc2nc(SCC(C)C)nc(-c3ccc(OC)cc3)c2C#N)cc1 to COc1ccc(COc2cc3oc(=O)c4cc(C(C)O)ccc4c3cc2OC)cc1 (stereo not drawn), the TGI rises from 28000 nM to over 100000 nM.

COc1cc(-c2ncn(/C=C\c3nnco3)n2)cc(C(F)(F)F)c1 and COc1cc(C(=O)/C=C/c2c(C(F)(F)F)nc3ccccn23)cc(OC)c1OC are within 1.5-fold of each other in TGI: 3960 nM for the first, 4720 nM for the second.

S=C(NCc1ccc2c(c1)OCO2)N1CCN(c2ncnc3c2oc2ccccc23)CC1 and O=C(c1cc(Cc2n[nH]c(=O)c3ccccc23)ccc1F)N1CCN(C(=O)C2CC2)CC1 cannot be ordered by TGI: over 100000 nM for the first, over 100000 nM for the second.

First: COC(=O)c1cc([N+](=O)[O-])cc([N+](=O)[O-])c1Cl
Second: O=C1/C(=C/c2ccccc2[N+](=O)[O-])COc2ccc(O)cc21
The TGI of the first is 1.8-fold lower: 2570 nM for the first, 4560 nM for the second.

First: N#C/C(=C\c1cc2ccc(N3CCC3)cc2oc1=O)C(=O)N(CC(=O)O)CC(=O)O
Second: CC1(C)[C@H](O)[C@H](F)C[C@@]2(C)Oc3ccc(C(=O)Nc4ccc5c(c4)NC(=O)C54CCN(CCCCC#N)CC4)cc3C[C@H]12
The TGI of the first is higher: over 100000 nM for the first, 10700 nM for the second.

Going from Nc1nc2ccccc2c2c1S(=O)(=O)c1ccc(Cl)cc1C2=O to Nc1nc(-c2ccc(Cl)cc2)nc2c1sc(=S)n2-c1ccccc1, the TGI rises from 2150 nM to 23200 nM (11-fold).

First: COCCOCCOCCOCCOC(=O)OC[n+]1ccc(NC(=NCCCCCCOc2ccc(Cl)cc2)NC#N)cc1
Second: CCn1ccnc1C(=O)/C=C/c1ccc(CC(=O)Nc2ccc(F)cc2)cc1
The TGI of the first is 2-fold higher: 9990 nM for the first, 4940 nM for the second.

Going from CC(=O)N(O)c1ccc(/C=C/c2ccccc2)cc1 to Cn1c(C(=O)c2cccc3ccccc23)nc2ccccc21, the TGI rises from 932 nM to over 100000 nM.

Going from Clc1nc(Cl)c2ncn(CCOCCn3cnc4c(Cl)nc(Cl)nc43)c2n1 to Clc1ccc([I+]c2ccc(Cl)cc2Cl)c(Cl)c1, the TGI rises from 359 nM to 2810 nM (7.8-fold).

Compared with Fc1ccc2nc(-c3nc(-c4ccccc4)n4ccccc34)[nH]c2c1, Cc1ccc(-n2c(-c3cc4c([nH]c5ccccc54)c(-c4cccc(O)c4)n3)n[nH]c2=S)cc1 is 3.4-fold lower in TGI: 4020 nM for the first, 1180 nM for the second.

O=S(=O)(NCCCNc1nccc(-c2c(-c3ccc(F)cc3)nc3sccn23)n1)c1ccc(F)cc1 and NCc1ccc(-c2nc(-c3ccc(Cl)c(O)c3)c(-c3ccncc3)[nH]2)cc1 cannot be ordered by TGI: over 100000 nM for the first, over 25000 nM for the second.

Compared with C=C1C(=O)O[C@H]2[C@H]1CC/C(COC(=O)NCc1c[nH]c3ccc(F)cc13)=C\CC[C@@]1(C)O[C@@H]21, C[C@@H](NC(=O)c1ccc(F)cc1)c1ccc2c(c1)CCN2C(=O)C1CCOCC1 is higher in TGI: 2910 nM for the first, over 100000 nM for the second.

First: COc1ccc(-c2c3c(N)c4c(nc3nc3c2c(C)nn3-c2ccccc2)CCCC4)cc1
Second: CC1CCN(CCOc2ccc(CNc3ccc4nc(CCC5CCCCC5)[nH]c4c3)cc2)CC1
The TGI of the first is 2.4-fold higher: 7670 nM for the first, 3250 nM for the second.

N#Cc1c(NC(=O)c2ccccc2F)sc2c1CCCC2 and N#Cc1cccc(Nc2ncc(-c3ccccc3)o2)c1 cannot be ordered by TGI: over 25000 nM for the first, over 25000 nM for the second.

First: C[C@H]1CN(C2COC2)CCN1c1ccc(Nc2cc(-c3ccnc(N4CCn5c(cc6c5CC(C)(C)C6)C4=O)c3CO)cn(C)c2=O)nc1
Second: COc1ccc2c(c1)C(=O)c1c-2c(=O)n(CCCN(C)C)c2cc(OC)c(OC)cc12
The TGI of the first is 9-fold higher: 89400 nM for the first, 9920 nM for the second.

Compared with COc1ccc(S(=O)(=O)N2CCNCC2)cc1OC, c1ccc(C2CCCCC2)c(OCCCCCN2CCNCC2)c1 is lower in TGI: over 100000 nM for the first, 4200 nM for the second.

CC1SC(c2ccc(Cl)cc2)N(CCc2cccs2)C1=O (stereo not drawn) and O=C1c2ccccc2C(=O)c2c1cc1c(c2[N+](=O)[O-])OCO1 are within 1.5-fold of each other in TGI: 3750 nM for the first, 4410 nM for the second.

C=CCN(CC=C)C(=O)[C@H](CC)[C@@H]1CC[C@@H](C)[C@@H]([C@H](C)[C@@H](O)[C@@H](C)C(=O)[C@H](CC)C2O[C@]3(C=C[C@@H](O)[C@]4(CC[C@@](C)([C@H]5CC[C@](O)(CC)[C@H](C)O5)O4)O3)[C@H](C)C[C@@H]2C)O1 (stereo partly drawn) gave a TGI of 4840 nM.

With N#CCNC(=O)c1ccc(-c2ccnc(Nc3ccc(N4CCOCC4)cc3)n2)cc1 the GI50 was 2690 nM and 2350 nM.
With CC1(C)[C@H](O)[C@H](F)C[C@@]2(C)Oc3ccc(C(=O)Nc4ccc5c(c4)NC(=O)C54CCN(CCCCC#N)CC4)cc3C[C@H]12 the GI50 was 65.4 nM and 128 nM.
With O=c1[nH]c2ccccc2n1C1CCN(CCCC(c2ccc(F)cc2)c2ccc(F)cc2)CC1 the GI50 was 1320 nM and 1500 nM.
In the case of O=C(c1cc(Cc2n[nH]c(=O)c3ccccc23)ccc1F)N1CCN(C(=O)C2CC2)CC1, the GI50 is reported as 8290 nM and 13900 nM.

With N#CCNC(=O)c1ccc(-c2ccnc(Nc3ccc(N4CCOCC4)cc3)n2)cc1 the TGI was > 10000 nM and 11900 nM.
In the case of O=c1[nH]c2ccccc2n1C1CCN(CCCC(c2ccc(F)cc2)c2ccc(F)cc2)CC1, the TGI is reported as 2830 nM and 4460 nM.
